Experimental data: patent US20080262049A1, “Therapeutic Agent for Hematopoietic Tumor” (KYOWA HAKKO KOGYO CO., LTD., priority 2005, published 2008)
Structures can show the parent of a compound that is named as a salt.

Assays:
[1] = molecular target: T1, recombinant human Eg5 motor domain protein (Homo sapiens, UniProt P52732); test: Eg5 enzyme inhibition test (ATPase activity); assay type: biochemical; settings: for inhibition of the ATPase activity of Eg5 (in words): 30° C., 30 minutes, absorbance at 360 nm; for Eg5 inhibitory activity compared with the corresponding racemic mixture (in words): versus Compounds 3, 4, 6, 7, 20, 14, 9, 8, the respectively corresponding racemic mixtures
T1 construct: A plasmid expressing the motor domain of human Eg5 was constructed; made in house; host or cells: Escherichia coli BL21 (DE3)
T1 sequence (P52732 18-359 limits assumed): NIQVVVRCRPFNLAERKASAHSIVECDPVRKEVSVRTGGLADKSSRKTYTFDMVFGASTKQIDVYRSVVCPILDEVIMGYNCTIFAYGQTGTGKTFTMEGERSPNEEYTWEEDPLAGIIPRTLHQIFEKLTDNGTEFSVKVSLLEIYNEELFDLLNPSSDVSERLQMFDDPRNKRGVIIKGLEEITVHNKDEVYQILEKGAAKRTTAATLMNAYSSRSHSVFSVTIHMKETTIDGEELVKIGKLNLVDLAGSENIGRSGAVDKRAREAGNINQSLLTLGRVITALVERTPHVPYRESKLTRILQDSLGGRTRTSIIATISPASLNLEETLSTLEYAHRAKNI
Description: A recombinant human Eg5 motor domain protein was prepared by referring to the literature [Biochemistry, Vol. 35, p. […] A plasmid expressing the motor domain of human Eg5 was constructed, and transformed into Eseherichia coli BL21 (DE3). The transformant was cultured at 25° C., and when the OD600 reached 0.74, isopropyl-β-D-thiogalactoside was added at a final concentration of 0.5 mmol/L. The transformant was further cultured for 4 hours, and then the culture medium was centrifuged to collect the cells. The cells were suspended in a buffer and ultrasonicated, and then the sonicated solution was centrifuged to recover the supernatant. The supernatant was purified by cation exchange column chromatography to obtain a partially purified sample. Furthermore, the partially purified sample was purified by gel filtration column chromatography to obtain a finally purified sample.
Measurement of the ATPase activity of Eg5 was carried out by referring to the literatures [EMBO Journal, Vol. 13, p. […] Solution A was dispensed into each well of a 96-well plate as 45 μL portions. Solution B was used to serially dilute a test compound. The diluted test compound solutions in a volume of 30 μL were mixed with Solution A added beforehand in each well of the 96-well plate to start the enzymatic reaction. The enzymatic reaction was performed at 30° C. for 30 minutes. […] The relative activity was calculated to calculate IC50 value.

[2] = system: human acute lymphoblastic leukemia RS4;11 cells; test: Cell growth inhibition test against hematopoietic tumor cell lines (XTT), RS4;11; assay type: cell-based; settings: 72 hours culture with compound, read-out: growth inhibitory activity, GI50 value
Source text: (§1) As hematopoietic tumor cell lines, human acute lymphoblastic leukemia RS4;11 cells (ATCC No. CRL-1873), human chronic myeloid leukemia K-562 cells (ATCC No. CCL-243), and human multiple myeloma NCI-H929 cells (ATCC No. CRL-9068) were used. For the culture of the cells, RPMI 1640 Medium (Invitrogen, catalog No. 11875-093) containing 10% fetal bovine serum (Invitrogen, catalog No. 10099-141), 10 mmol/L 4-(2-hydroxyethyl)-1-piperazinethanesulfonic acid (HEPES) buffer (ICN Biomedicals, catalog No. 1688449), 1 mmol/L sodium pyruvate (Invitrogen, catalog No. 11360-070), 4.5 g/L glucose (Sigma-Aldrich, catalog No. G8769), 100 units/mL penicillin (Invitrogen, catalog No. 15140-122) and 100 μg/mL streptomycin (Invitrogen, catalog No. 15140-122) was used. The cells were cultured at 37° C. in a 5% carbon dioxide atmosphere.
(§2) RS4;11 cells (20000 cells/well), K-562 cells (1000 cells/well), or NCI-H929 cells (15000 cells/well) were seeded in each well of 96-well plates (Nunc, catalog No. 167008), and cultured overnight. Test compounds diluted stepwise were added, and the cells were further cultured for 72 hours (final volume: 100 μL/well). Fifty μL XTT labeling mixture of Cell Proliferation Kit II (XTT) (Roche Diagnostics, catalog No. 1465015) was added to each well, and the plates were incubated at 37° C. After 4 hours, absorbance at 490 nm (reference wavelength: 655 nm) was measured with a plate reader (Molecular Device, SpectraMax 340PC^384). Growth ratios of the cells in the wells treated with the test compound was calculated based on the growth ratio of the cells in the control well treated with solvent (dimethyl sulfoxide (DMSO)) for 72 hours, which was defined as 100%.

[3] = system: human chronic myeloid leukemia K-562 cells; test: Cell growth inhibition test against hematopoietic tumor cell lines (XTT), K-562; assay type: cell-based; settings: K562, 72 hours culture with compound, read-out: growth inhibitory activity, GI50 value
Source text: as §1, §2

[4] = system: human multiple myeloma NCI-H929 cells; test: Cell growth inhibition test against hematopoietic tumor cell lines (XTT), NCI-H929; assay type: cell-based; settings: 72 hours culture with compound, read-out: growth inhibitory activity, GI50 value
Source text: as §1, §2

[5] = system: human acute myeloid leukemia MV-4-11 cells; test: Cell growth inhibition test on acute myeloid leukemia cells (XTT), MV-4-11; assay type: cell-based; settings: MV4-11, same manner as Test Example 1, read-out: growth inhibitory activity, GI50 value
Description: as §2
(§3) As cancer cell lines, human acute myeloid leukemia MV-4-11 cells (ATCC No. CRL-9591) and human non-Hodgkin's lymphoma SR cells (ATCC No. CRL-2262) were used. The cells were cultured at 37° C. in a 5% carbon dioxide atmosphere by using the mediums mentioned below, respectively.
(§4) In the same manner as that of Test Example 1, the cells were seeded (8000 to 16000 cells/well, respectively) in each well of 96-well plates (Nunc, catalog No. 167008), and growth ratios of the cells treated with test compounds were calculated. Measurement of absorbance was performed at 3 to 4 hours after the addition of the XTT labeling mixture.

[6] = system: human non-Hodgkin's lymphoma SR cells; test: Cell growth inhibition test on non-Hodgkin's lymphoma cells (XTT), SR; assay type: cell-based; settings: same manner as Test Example 1, read-out: growth inhibitory activity, GI50 value
Description: as §2, §3, §4

## CC(=O)N1N=C(N2CCCCC2=O)SC1(CCNS(C)(=O)=O)c1ccccc1 (racemic) [Compound 20, N-{2-[3-Acetyl-5-(2-oxopiperidino)-2-phenyl-2,3-dihydro-1,3,4-thiadiazol-2-yl]ethyl}methanesulfonamide]
[1]
  inhibition of the ATPase activity of Eg5 (in words): inhibited the ATPase activity of Eg5 in a concentration-dependent manner

## CCC(=O)N1N=C(NC(=O)C(C)(C)C)SC1(CCNS(C)(=O)=O)c1ccccc1 (single isomer, unassigned; (-)) [Compound b, (−)-N-[5-(2-Methanesulfonylaminoethyl)-5-phenyl-4-propionyl-4,5-dihydro-1,3,4-thiadiazol-2-yl]-2,2-dimethylpropanamide]
[2]
  GI50: < 10 µM
[3]
  GI50: < 10 µM
[4]
  GI50: < 10 µM
[5]
  GI50: < 10 µM
[6]
  GI50: < 10 µM
[1]
  inhibition of the ATPase activity of Eg5 (in words): inhibited the ATPase activity of Eg5 in a concentration-dependent manner
  Eg5 inhibitory activity compared with the corresponding racemic mixture (in words): stronger inhibitory activities

## CC(=O)N1N=C(N2CCCC2=O)SC1(CCNS(C)(=O)=O)c1ccccc1 (centres unmarked) [Compound g, N-{2-[3-Acetyl-5-(2-oxopyrrolidin-1-yl)-2-phenyl-2,3-dihydro-1,3,4-thiadiazol-2-yl]ethyl}methanesulfonamide]
other
  melting point: 137 to 140 °C

## CC(C)(C)C(=O)N1N=C(N2CCCC2=O)SC1(CCNS(C)(=O)=O)c1ccccc1 (single isomer, unassigned; (-)) [Compound c, (−)-N-{2-[3-(2,2-Dimethylpropionyl)-5-(2-oxopyrrolidin-1-yl)-2-phenyl-2,3-dihydro-1,3,4-thiadiazol-2-yl]ethyl}methanesulfonamide]
other
  melting point: 107 to 110 °C

## CCNCCS(=O)(=O)NCCC1(c2ccccc2)SC(NC(=O)C(C)(C)C)=NN1C(=O)C(C)(C)C (racemic) [Compound 14, N-{4-(2,2-Dimethylpropionyl)-5-[2-(2-ethylaminoethanesulfonylamino)-ethyl]-5-phenyl-4,5-dihydro-1,3,4-thiadiazol-2-yl}-2,2-dimethylpropanamide]
[1]
  inhibition of the ATPase activity of Eg5 (in words): inhibited the ATPase activity of Eg5 in a concentration-dependent manner

## CCNCCS(=O)(=O)NCCC1(c2ccccc2)SC(NC(=O)C(C)(C)C)=NN1C(=O)C(C)(C)C (single isomer, unassigned) [Compound i, N-{4-(2,2-Dimethylpropionyl)-5-[2-(2-ethylaminoethanesulfonylamino)-ethyl]-5-phenyl-4,5-dihydro-1,3,4-thiadiazol-2-yl}-2,2-dimethylpropanamide]
[2]
  GI50: < 10 µM
[3]
  GI50: < 10 µM
[4]
  GI50: < 10 µM
[5]
  GI50: < 10 µM
[6]
  GI50: < 10 µM
[1]
  inhibition of the ATPase activity of Eg5 (in words): inhibited the ATPase activity of Eg5 in a concentration-dependent manner
  Eg5 inhibitory activity compared with the corresponding racemic mixture (in words): stronger inhibitory activities

## CC(C)C(=O)N1N=C(NC(=O)C(C)(C)C)SC1(CCNS(C)(=O)=O)c1ccccc1 (single isomer, unassigned; (-)) [Compound d, (−)-N-[4-Isobutyryl-5-(2-methanesulfonylaminoethyl)-5-phenyl-4,5-dihydro-1,3,4-thiadiazol-2-yl]-2,2-dimethylpropanamide]
[2]
  GI50: < 10 µM
[3]
  GI50: < 10 µM
[4]
  GI50: < 10 µM
[5]
  GI50: < 10 µM
[6]
  GI50: < 10 µM
[1]
  inhibition of the ATPase activity of Eg5 (in words): inhibited the ATPase activity of Eg5 in a concentration-dependent manner
  Eg5 inhibitory activity compared with the corresponding racemic mixture (in words): stronger inhibitory activities

## CCNCCS(=O)(=O)NCC1(c2ccccc2)SC(NC(=O)C(C)(C)C)=NN1C(=O)C(C)(C)C (single isomer, unassigned; (-)) [Compound l, (−)-N-[4-(2,2-Dimethylpropionyl)-5-(2-ethylaminoethanesulfonylaminomethyl)-5-phenyl-4,5-dihydro-1,3,4-thiadiazol-2-yl]-2,2-dimethylpropanamide]
[2]
  GI50: < 10 µM
[3]
  GI50: < 10 µM
[4]
  GI50: < 10 µM
[5]
  GI50: < 10 µM
[6]
  GI50: < 10 µM
[1]
  inhibition of the ATPase activity of Eg5 (in words): inhibited the ATPase activity of Eg5 in a concentration-dependent manner
  Eg5 inhibitory activity compared with the corresponding racemic mixture (in words): stronger inhibitory activities

## CC(C)(C)C(=O)NC1=NN(C(=O)C(C)(C)C)C(CN)(c2ccccc2)S1 (centres unmarked) (as salt: hydrochloride) [Compound j, N-[5-Aminomethyl-4-(2,2-dimethylpropionyl)-5-phenyl-4,5-dihydro-1,3,4-thiadiazol-2-yl]-2,2-dimethylpropanamide]
other
  melting point: 175 to 182 °C

## CC(C)(C)C(=O)NC1=NN(C(=O)C(C)(C)C)C(CCNS(C)(=O)=O)(c2ccccc2)S1 (single isomer, unassigned; (-)) [Compound a, (−)-N-[4-(2,2-Dimethylpropionyl)-5-(2-methanesulfonylaminoethyl)-5-phenyl-4,5-dihydro-1,3,4-thiadiazol-2-yl]-2,2-dimethylpropanamide]
[2]
  GI50: < 10 µM
[3]
  GI50: < 10 µM
[4]
  GI50: < 10 µM
[5]
  GI50: < 10 µM
[6]
  GI50: < 10 µM
[1]
  inhibition of the ATPase activity of Eg5 (in words): inhibited the ATPase activity of Eg5 in a concentration-dependent manner
  Eg5 inhibitory activity compared with the corresponding racemic mixture (in words): stronger inhibitory activities

## CC(C)(C)C(=O)NC1=NN(C(=O)C(C)(C)C)C(CN)(c2ccccc2)S1 (centres unmarked) [Compound j, N-[5-Aminomethyl-4-(2,2-dimethylpropionyl)-5-phenyl-4,5-dihydro-1,3,4-thiadiazol-2-yl]-2,2-dimethylpropanamide]
[2]
  GI50: < 10 µM
[3]
  GI50: < 10 µM
[4]
  GI50: < 10 µM

## CC(C)(C)C(=O)NC1=NN(C(=O)C(C)(C)C)C(CCCC(=O)NCCO)(c2ccccc2)S1 (single isomer, unassigned) [Compound o, 4-[3-(2,2-Dimethylpropionyl)-5-(2,2-dimethylpropionylamino)-2-phenyl-2,3-dihydro-1,3,4-thiadiazol-2-yl]-N-(2-hydroxyethyl)butanamide]
[2]
  GI50: < 10 µM
[3]
  GI50: < 10 µM
[4]
  GI50: < 10 µM
[5]
  GI50: < 10 µM
[6]
  GI50: < 10 µM
[1]
  inhibition of the ATPase activity of Eg5 (in words): inhibited the ATPase activity of Eg5 in a concentration-dependent manner
  Eg5 inhibitory activity compared with the corresponding racemic mixture (in words): stronger inhibitory activities
